Patent publication US10457663B2, “Pyrazol-pyridine derivatives” (Hoffmann-La Roche Inc., priority 2016, dated 2019)

Experiments:
human EAAT3 = molecular target: T1, human EAAT3 (Homo sapiens, UniProt P43005); experiment: FLIPR Membrane Potential (FMP) assay; format: cell-based; settings: HEK-293 cells stably expressing human EAAT3; L-glutamate as agonist at EC80; antagonist applied 15 min before; Kb by Cheng-Prusoff from IC50
T1 construct: expressed in transfected cells; host or cells: HEK-293
T1 sequence (P43005 1-524): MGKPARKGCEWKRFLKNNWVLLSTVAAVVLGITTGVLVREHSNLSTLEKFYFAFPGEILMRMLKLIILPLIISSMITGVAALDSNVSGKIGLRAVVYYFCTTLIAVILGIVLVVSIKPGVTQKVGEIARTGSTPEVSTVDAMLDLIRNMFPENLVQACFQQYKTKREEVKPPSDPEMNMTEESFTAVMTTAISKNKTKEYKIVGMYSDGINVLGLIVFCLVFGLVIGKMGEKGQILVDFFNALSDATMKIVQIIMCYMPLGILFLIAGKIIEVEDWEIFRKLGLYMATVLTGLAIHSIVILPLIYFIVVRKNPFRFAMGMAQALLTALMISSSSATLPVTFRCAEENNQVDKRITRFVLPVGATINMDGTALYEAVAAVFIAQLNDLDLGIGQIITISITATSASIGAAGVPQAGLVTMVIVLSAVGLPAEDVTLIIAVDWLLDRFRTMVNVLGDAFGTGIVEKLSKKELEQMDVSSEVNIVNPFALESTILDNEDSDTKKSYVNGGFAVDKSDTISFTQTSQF
Method: The FLIPR Membrane Potential (FMP) assay
HEK-293 cells stably expressing human EAAT3 were seeded at 55 000 cells/well in growth medium (DMEM glutamate free (Invitrogen 11960-044), 1% Pen Strep (10 ml/l GIBCO BRL N^o 15140-023), 10% FCS non dialysed heat inactivated, 5 mg/l puromycin) in poly-D-lysine treated 96-well black microtiter plates with clear-bottom. After 24 h, the growth medium was removed and 100 μl/well of Krebs buffer (140 mM NaCl, 4.7 mM KCl, 2.5 mM CaCl2), 1.2 mM MgCl2, 11 mM HEPES, 10 mM D-glucose, pH=7.4) added. The cells were then loaded by adding 100 μl/well FMP assay dye (FLIPR Membrane Potential assay reagent, Molecular Devices). The 96-well plates were then incubated at 37° C. for 1 h. The depolarization of the cells will cause more dye to enter in the cells, where it will bind to intracellular proteins and lipids and cause an increase in the fluorescence signal. Antagonist potency at human EAAT3 was determined by using L-glutamate as agonist at a concentration which gives 80% of the maximum response. The antagonists were applied 15 min before the application of the agonist L-glutamate. The assays were performed at room temperature and measurements done by using a Fluorometric Imaging Plate Reader (FLIPR, Molecular Devices) and filter #2. Responses were measured as peak increase in fluorescence minus basal (i.e. fluorescence without addition of L-glutamate). Kb was determined using the Cheng-Prusoff equation Kb=IC50/[1+(A/EC50)], where IC50 is the concentration of the antagonist producing 50% inhibition, A is the concentration of the agonist against which the IC50 is being determined (at EC80) and EC50 is the concentration of the agonist producing 50% […].

melting point [°C]	Kb (human EAAT3) [nM]	Compound
192	190	CC1(NC(=O)c2cc(-c3ccc(F)cc3)nc(-c3ccnn3C(C)(C)C)c2)CCS(=O)(=O)C1 (racemic) [Example 9, (RS)-2-(2-tert-Butylpyrazol-3-yl)-6-(4-fluorophenyl)-N-(3-methyl-1,1-dioxothiolan-3-yl)-pyridine-4-carboxamide]
	530	CC(C)n1nccc1-c1cc(C(=O)NC2(C)CCS(=O)(=O)C2)cc(-c2ccc(F)cc2)n1 (racemic) [Example 43, (RS)-2-(4-Fluorophenyl)-N-(3-methyl-1,1-dioxothiolan-3-yl)-6-(2-propan-2-yl-pyrazol-3-yl)-pyridine-4-carboxamide]
184	370	Cn1nccc1-c1cc(C(=O)NC(C)(C)C)cc(-c2ccc(Cl)cc2)n1 [Example 1, N-tert-Butyl-2-(4-chlorophenyl)-6-(2-methyl-pyrazol-3-yl)-pyridine-4-carboxamide]
161	560	Cn1nccc1-c1cc(C(=O)NC(C)(C)C)cc(-c2ccc(F)cc2)n1 [Example 2, N-tert-Butyl-2-(4-fluorophenyl)-6-(2-methyl-pyrazol-3-yl)-pyridine-4-carboxamide]
226	65	CC(C)(C)NC(=O)c1cc(-c2ccc(F)cc2)nc(-c2ccnn2C(C)(C)C)c1 [Example 3, N-tert-Butyl-2-(2-tert-butyl-pyrazol-3-yl)-6-(4-fluorophenyl)-pyridine-4-carboxamide]
204	160	CC(C)(C)NC(=O)c1cc(-c2ccc(Cl)cc2)nc(-c2ccnn2C(C)(C)C)c1 [Example 4, N-tert-Butyl-2-(2-tert-butyl-pyrazol-3-yl)-6-(4-chlorophenyl)-pyridine-4-carboxamide]
222	290	CC(C)(C)NC(=O)c1cc(-c2ccc(C(F)(F)F)cc2)nc(-c2ccnn2C(C)(C)C)c1 [Example 5, N-tert-Butyl-2-(2-tert-butyl-pyrazol-3-yl)-6-[4-(trifluoromethyl)-phenyl]-pyridine-4-carboxamide]
173	450	CC(C)n1nccc1-c1cc(C(=O)NC(C)(C)C)cc(-c2ccc(C(F)(F)F)cc2)n1 [Example 6, N-tert-Butyl-2-(2-propan-2-yl-pyrazol-3-yl)-6-[4-(trifluoromethyl)-phenyl]-pyridine-4-carboxamide]
207	370	CC(C)n1nccc1-c1cc(C(=O)NC(C)(C)C)cc(-c2ccc(Cl)cc2)n1 [Example 7, N-tert-Butyl-2-(4-chlorophenyl)-6-(2-propan-2-yl-pyrazol-3-yl)-pyridine-4-carboxamide]
200	260	CC(C)n1nccc1-c1cc(C(=O)NC(C)(C)C)cc(-c2ccc(F)cc2)n1 [Example 8, N-tert-Butyl-2-(4-fluorophenyl)-6-(2-propan-2-yl-pyrazol-3-yl)-pyridine-4-carboxamide]
154	140	CCC(C)(C)NC(=O)c1cc(-c2ccc(F)cc2)nc(-c2ccnn2C(C)(C)C)c1 [Example 10, 2-(2-tert-Butylpyrazol-3-yl)-6-(4-fluorophenyl)-N-(2-methylbutan-2-yl)-pyridine-4-carboxamide]
170	360	CCn1nccc1-c1cc(C(=O)NC(C)(C)C)cc(-c2ccc(F)cc2)n1 [Example 11, N-tert-Butyl-2-(2-ethylpyrazol-3-yl)-6-(4-fluorophenyl)-pyridine-4-carboxamide]
203	310	CC(C)(C)NC(=O)c1cc(-c2ccc(F)cc2)nc(-c2ccnn2CC2CC2)c1 [Example 12, N-tert-Butyl-2-[2-(cyclopropylmethyl)-pyrazol-3-yl]-6-(4-fluorophenyl)-pyridine-4-carboxamide]
	110	CC(C)(C)NC(=O)c1cc(-c2ccc(C3CC3)cc2)nc(-c2ccnn2C(C)(C)C)c1 [Example 17, N-tert-Butyl-2-(2-tert-butyl-pyrazol-3-yl)-6-(4-cyclopropyl-phenyl)-pyridine-4-carboxamide]
	89	CC(C)(C)NC(=O)c1cc(-c2ccc(C#N)cc2)nc(-c2ccnn2C(C)(C)C)c1 [Example 18, N-tert-Butyl-2-(2-tert-butyl-pyrazol-3-yl)-6-(4-cyano-phenyl)-pyridine-4-carboxamide]
	110	CC(C)(C)NC(=O)c1cc(-c2ccc(F)c(Cl)c2)nc(-c2ccnn2C(C)(C)C)c1 [Example 21, N-tert-Butyl-2-(2-tert-butyl-pyrazol-3-yl)-6-(3-chloro-4-fluoro-phenyl)-pyridine-4-carboxamide]
	85	COc1ccc(-c2cc(C(=O)NC(C)(C)C)cc(-c3ccnn3C(C)(C)C)n2)cc1 [Example 23, N-tert-Butyl-2-(2-tert-butyl-pyrazol-3-yl)-6-(4-methoxy-phenyl)-pyridine-4-carboxamide]
	74	Cc1cc(-c2cc(C(=O)NC(C)(C)C)cc(-c3ccnn3C(C)(C)C)n2)ccc1F [Example 25, N-tert-Butyl-2-(2-tert-butyl-pyrazol-3-yl)-6-(4-fluoro-3-methyl-phenyl)-pyridine-4-carboxamide]
	560	CC(C)n1nccc1-c1cc(C(=O)NC(C)(C)C)cc(-c2ccc(C3CC3)cc2)n1 [Example 29, N-tert-Butyl-2-(4-cyclopropyl-phenyl)-6-(2-propan-2-yl-pyrazol-3-yl)-pyridine-4-carboxamide]
	1870	CC(C)n1nccc1-c1cc(C(=O)NC(C)(C)C)cc(-c2ccc(C#N)cc2)n1 [Example 30, N-tert-Butyl-2-(4-cyano-phenyl)-6-(2-propan-2-yl-pyrazol-3-yl)-pyridine-4-carboxamide]
	240	CC(C)n1nccc1-c1cc(C(=O)NC(C)(C)C)cc(-c2ccc(F)c(F)c2)n1 [Example 31, N-tert-Butyl-2-(3,4-difluoro-phenyl)-6-(2-propan-2-yl-pyrazol-3-yl)-pyridine-4-carboxamide]
	1180	CC(C)c1ccc(-c2cc(C(=O)NC(C)(C)C)cc(-c3ccnn3C(C)C)n2)cc1 [Example 32, N-tert-Butyl-2-(4-propan-2-yl-phenyl)-6-(2-propan-2-yl-pyrazol-3-yl)-pyridine-4-carboxamide]
	530	CC(C)n1nccc1-c1cc(C(=O)NC(C)(C)C)cc(-c2ccc(F)c(Cl)c2)n1 [Example 33, N-tert-Butyl-2-(3-chloro-4-fluorophenyl)-6-(2-propan-2-yl-pyrazol-3-yl)-pyridine-4-carboxamide]
	260	Cc1ccc(-c2cc(C(=O)NC(C)(C)C)cc(-c3ccnn3C(C)C)n2)cc1 [Example 34, N-tert-Butyl-2-(4-methyl-phenyl)-6-(2-propan-2-yl-pyrazol-3-yl)-pyridine-4-carboxamide]
	360	COc1ccc(-c2cc(C(=O)NC(C)(C)C)cc(-c3ccnn3C(C)C)n2)cc1 [Example 35, N-tert-Butyl-2-(4-methoxy-phenyl)-6-(2-propan-2-yl-pyrazol-3-yl)-pyridine-4-carboxamide]
	230	CC(C)n1nccc1-c1cc(C(=O)NC(C)(C)C)cc(-c2ccc(Cl)c(F)c2)n1 [Example 36, N-tert-Butyl-2-(4-chloro-3-fluorophenyl)-6-(2-propan-2-yl-pyrazol-3-yl)-pyridine-4-carboxamide]
	400	Cc1ccc(-c2cc(C(=O)NC(C)(C)C)cc(-c3ccnn3C(C)C)n2)cc1F [Example 38, N-tert-Butyl-2-(3-fluoro-4-methyl-phenyl)-6-(2-propan-2-yl-pyrazol-3-yl)-pyridine-4-carboxamide]
	450	CC(C)n1nccc1-c1cc(C(=O)NC(C)(C)C#N)cc(-c2ccc(F)cc2)n1 [Example 45, N-(2-Cyanopropan-2-yl)-2-(4-fluorophenyl)-6-(2-propan-2-yl-pyrazol-3-yl)-pyridine-4-carboxamide]
